# Laboratory results reported in paper PMC10777848 (Antimicrobial Agents and Chemotherapy, 2023).
# Several values for one entry are separate records, joined by “and”; a condition that tells them apart may be missing. Identical values can stand only once. Like-named read-outs stand apart in the source and are kept apart here.
# Assays:
# A. baumannii [1] = test system: A. baumannii; parameters: method as in PMID 34349751; conditions: cited from earlier work
# [2] = Distribution into mouse ELF (plasma and BAL sampling); conditions: 100:25 mg/kg sulbactam:durlobactam SC, neutropenic mice infected with ARC2058
# A. baumannii [3] = test: Murine neutropenic lung infection model, PK/PD exposure-response; type: in vivo, CD-1 mice
# Protocol: (§1) Magnitudes associated with 1-log10 and 2-log10 CFU reduction from baseline at 24 hours as well as the exposure required for an 80% reduction in bacterial burden (EC80) were determined from the fitted function.
# in vivo = conditions: CD-1, mouse
# A. baumannii [4] = test: Murine neutropenic thigh and lung models taken together; type: in vivo, CD-1 mice
# Protocol: as §1
# A. baumannii [5] = conditions: in vitro pharmacodynamic models; cited from earlier work
# [6] = parameters: method as in data on file Entasis Therapeutics; conditions: mean of mouse plasma protein unbound fractions ex vivo, 0.4 µM to 50 µM; ref data on file Entasis Therapeutics; cited from earlier work
# [7] = Population PK in infected neutropenic mice (two-compartment model)
# From the text: As the plasma PK of neutropenic lung-infected animals matched that of thigh-infected animals, the thigh-infected PK was used for the development of the population PK model and subsequent exposure estimates for doses used in the PK/PD exposure-response analyses. Pharmacokinetic models were fit to time vs. drug concentration profiles generated in infected mice using Phoenix6.2 WinNonLin and NLME. […] Predicted exposures were utilized in the PK/PD analyses as all dosing solutions tested were within the variability of the bioanalytical method (20%).
# A. baumannii [8] = type: in vivo
# Protocol: as §1
# [9] = based on total ELF and plasma AUC exposures; cited from earlier work
# A. baumannii isolates = test: Broth MIC testing (CLSI methodology); type: cell-based; conditions: Acinetobacter baumannii, modal MIC, combination = sulbactam with fixed 4 µg/mL durlobactam
# From the text: All strains with an “ARC” designation are part of the Entasis collection of clinical isolates. All isolates have been previously characterized by whole genome sequencing.
# [10] = test system: 4,038 recent, global, clinical isolates of A. baumannii; parameters: method as in PMID 36005804; conditions: 4,038 global clinical isolates, cited from earlier work
# A. baumannii [11] = type: in vivo; conditions: thigh model; oral 200 mg/kg bid; A. baumannii ARC2058; 24 h
# [12] = mean of thigh 4:1, lung 4:1 and thigh fixed SUL dose
# [13] = sulbactam and durlobactam co-administered 4:1 SC, predicted value (% coefficient of variance)
# [14] = thigh (4:1 dose), 5 strains, SUL mean exposure 32.9 to 43.5%T>MIC, 24 h
# [15] = co-modeled thigh (n = 6 strains), sulbactam alone and combined with durlobactam
# [16] = thigh, ARC2058, sulbactam only, 24 h
# [17] = thigh, ARC3484, sulbactam:durlobactam 4:1 dosing, 24 h
# [18] = thigh, ARC5081, sulbactam:durlobactam 4:1 dosing, 24 h
# [19] = thigh, ARC5091, sulbactam:durlobactam 4:1 dosing, 24 h
# [20] = thigh, mean of individual CRAB strains, 4:1 dosing
# [21] = lung model, A. baumannii ARC2058, SC q6h, 24 h
# [22] = thigh model, A. baumannii ARC2058, SC q6h, 24 h
smiles,measurement,setting,value
"CC1=C[C@@H]2CN(C(=O)N2OS(=O)(=O)O)[C@@H]1C(N)=O [Durlobactam, durlobactam]",intrinsic antibacterial activity against A. baumannii on its own,A. baumannii [1],no significant intrinsic antibacterial activity
same,"AUC, ELF",[2],4400 ng·h/mL
same,"Concentration, ELF",[2]; 1 h,2480 ± 910 ng/mL
same,"Concentration, ELF",[2]; 3 h,260 ± 150 ng/mL
same,"Concentration, ELF",[2]; 6 h,2 ± 1 ng/mL
same,"Concentration, Plasma",[2]; 6 h,30 ± 10 ng/mL
same,"Concentration, ELF",[2]; 12 h,BLQ
same,Co-modeled durlobactam fAUC/MIC ratio for 1-log10 CFU reduction from baseline,"A. baumannii [3]; mouse, in vivo",10.6
same,Co-modeled durlobactam fAUC/MIC ratio for 2-log10 CFU reduction from baseline,"A. baumannii [3]; mouse, in vivo",22.4
same,Co-modeled durlobactam fAUC/MIC ratio for EC80,"A. baumannii [3]; mouse, in vivo",78.6
same,Kp,"in vivo; epithelial lining fluid (ELF) / plasma, subcutaneous",0.63
same,AUC,"in vivo; in vivo, sc, 25 mg/kg",7000 ng·h/mL
same,Kp,"in vivo; in vivo, sc, 25 mg/kg",0.63
same,concentration at 1 h,"in vivo; in vivo, sc, 25 mg/kg",4070 ± 1790 ng/mL
same,concentration at 3 h,"in vivo; in vivo, sc, 25 mg/kg",330 ± 130 ng/mL
same,concentration at 12 h,"in vivo; in vivo, sc, 25 mg/kg",10 ± 1 ng/mL
same,durlobactam fAUC/MIC0-24 at which an additional log10 CFU reduction can be realized,"A. baumannii [4]; both thigh and lung models, in combination with sulbactam",~ 30
same,durlobactam fAUC/MIC0-24 at which 1-log10 CFU reduction over 24 hours can be realized,"A. baumannii [4]; both thigh and lung models, in combination with sulbactam, co-modeled across strains",10 and ~ 10
same,"Durlobactam fAUC/MIC ratio for 1-log10 CFU reduction from baseline, Mean ± SD",A. baumannii [4]; [12],8.7 ± 1.7
same,"Durlobactam fAUC/MIC ratio for 2-log10 CFU reduction from baseline, Mean ± SD",A. baumannii [4]; [12],23.4 ± 7.9
same,"Durlobactam fAUC/MIC ratio for EC80, Mean ± SD",A. baumannii [4]; [12],44.0 ± 32.1
same,durlobactam AUC/MIC associated with net 1-log10 CFU reduction over 24 hours,A. baumannii [5],> 10 and 10
same,murine unbound fraction,[6],100%
same,Cl1 (clearance of central compartment),[7]; [13],3.0747 (7.3) L/kg/h
same,Ka (absorption rate),[7]; [13],13.5 (32.6) 1/hr
same,V1 (central compartment volume of distribution),[7]; [13],1.2508 (8.4) L/kg
same,Co-modeled durlobactam fAUC/MIC ratio for EC80,"A. baumannii [8]; mouse, in vivo",38.2
same,Co-modeled durlobactam fAUC/MIC ratio for 1-log10 CFU reduction from baseline,A. baumannii [8]; [14],8.0
same,Co-modeled durlobactam fAUC/MIC ratio for 2-log10 CFU reduction from baseline,A. baumannii [8]; [14],16.0
same,Co-modeled durlobactam fAUC/MIC ratio for EC80,A. baumannii [8]; [14],15.1
same,ELF penetration observed clinically,[9],37%
"CC1(C)[C@H](C(=O)O)N2C(=O)C[C@H]2S1(=O)=O [Sulbactam, sulbactam]",MIC,A. baumannii isolates; A. baumannii ARC2058,2 µg/mL
same,MIC,A. baumannii isolates; A. baumannii ARC3484,16 µg/mL
same,MIC,A. baumannii isolates; A. baumannii ARC3486,32 µg/mL
same,MIC,A. baumannii isolates; A. baumannii ARC5077,16 µg/mL
same,MIC,A. baumannii isolates; A. baumannii ARC5079,32 µg/mL
same,MIC,A. baumannii isolates; A. baumannii ARC5081,16 µg/mL
same,MIC,A. baumannii isolates; A. baumannii ARC5091,8 µg/mL
same,MIC,A. baumannii isolates; A. baumannii ARC5950,64 µg/mL
same,MIC,A. baumannii isolates; A. baumannii ARC5954,32 µg/mL
same,MIC,A. baumannii isolates; A. baumannii ARC5955,64 µg/mL
same,"AUC, ELF",[2],10300 ng·h/mL
same,"AUC, Plasma",[2],32300 ng·h/mL
same,"Concentration, ELF",[2]; 1 h,5700 ± 1150 ng/mL
same,"Concentration, Plasma",[2]; 1 h,18550 ± 5870 ng/mL
same,"Concentration, ELF",[2]; 3 h,540 ± 120 ng/mL
same,"Concentration, Plasma",[2]; 3 h,1690 ± 560 ng/mL
same,"Concentration, ELF",[2]; 6 h,290 ± 140 ng/mL
same,"Concentration, Plasma",[2]; 6 h,100 ± 50 ng/mL
same,"Concentration, ELF",[2]; 12 h,60 ± 10 ng/mL
same,"Concentration, Plasma",[2]; 12 h,20 ± 10 ng/mL
same,sulbactam fT>MIC at which 1-log10 CFU reduction over 24 hours can be realized,"A. baumannii [4]; both thigh and lung models, in combination with durlobactam, co-modeled across strains",exceeds 50%
same,sulbactam fT>MIC at which 2-log10 CFU reduction was achieved,"A. baumannii [4]; present in vivo study, sulbactam-susceptible isolate ARC2058",exceeded 50%
same,murine unbound fraction,[6],100%
same,V1 (central compartment volume of distribution),"[7]; sulbactam alone, SC, predicted value",1.8847 L/kg
same,Ka (absorption rate),"[7]; sulbactam alone, SC, predicted value (% coefficient of variance)",6 (12.5) 1/hr
same,Ka (absorption rate),[7]; [13],12 (8.4) 1/hr
same,V1 (central compartment volume of distribution),[7]; [13],1.0177 (7.0) L/kg
same,Sulbactam %fT>MIC for 2-log10 CFU reduction from baseline,A. baumannii [8]; [15],38.2%
same,Sulbactam %fT>MIC for EC80,A. baumannii [8]; [15],44.1%
same,Sulbactam %fT>MIC for 1-log10 CFU reduction from baseline,A. baumannii [8]; [16],20.5%
same,Sulbactam %fT>MIC for 2-log10 CFU reduction from baseline,A. baumannii [8]; [16],31.5%
same,Sulbactam %fT>MIC for EC80,A. baumannii [8]; [16],47.0%
same,Sulbactam %fT>MIC for 2-log10 CFU reduction from baseline,A. baumannii [8]; [17],40.2%
same,Sulbactam %fT>MIC for EC80,A. baumannii [8]; [17],42.8%
same,Sulbactam %fT>MIC for EC80,"A. baumannii [8]; thigh, ARC3486, sulbactam:durlobactam 4:1 dosing, 24 h",55.3%
same,Sulbactam %fT>MIC for EC80,"A. baumannii [8]; thigh, ARC5079, sulbactam:durlobactam 4:1 dosing, 24 h",53.2%
same,Sulbactam %fT>MIC for 1-log10 CFU reduction from baseline,A. baumannii [8]; [18],26.3%
same,Sulbactam %fT>MIC for 2-log10 CFU reduction from baseline,A. baumannii [8]; [18],28.8%
same,Sulbactam %fT>MIC for EC80,A. baumannii [8]; [18],32.0%
same,Sulbactam %fT>MIC for 1-log10 CFU reduction from baseline,A. baumannii [8]; [19],26.7%
same,Sulbactam %fT>MIC for 2-log10 CFU reduction from baseline,A. baumannii [8]; [19],29.3%
same,Sulbactam %fT>MIC for EC80,A. baumannii [8]; [19],30.4%
same,"Sulbactam %fT>MIC for 2-log10 CFU reduction from baseline, Mean ± SD",A. baumannii [8]; [20],38.6 ± 10.0%
same,"Sulbactam %fT>MIC for EC80, Mean ± SD",A. baumannii [8]; [20],42.7 ± 11.6%
same,MIC90 of sulbactam,[10]; sulbactam alone,64 µg/mL
same,MIC90 of sulbactam,[10]; with the addition of durlobactam,2 µg/mL
"C[C@@H](O)[C@H]1C(=O)N2C(C(=O)O)=C(S[C@@H]3CN[C@H](C(=O)N(C)C)C3)[C@H](C)[C@H]12 [Meropenem, meropenem]",Meropenem %fT>MIC for 1-log10 CFU/g reduction from baseline,A. baumannii [3]; [21],29.4%
same,Meropenem %fT>MIC for 2-log10 CFU/g reduction from baseline,A. baumannii [3]; [21],32.2%
same,Meropenem %fT>MIC for EC80,A. baumannii [3]; [21],39.7%
same,Meropenem %fT>MIC for 1-log10 CFU/g reduction from baseline,A. baumannii [8]; [22],27.2%
same,Meropenem %fT>MIC for 2-log10 CFU/g reduction from baseline,A. baumannii [8]; [22],32.4%
same,Meropenem %fT>MIC for EC80,A. baumannii [8]; [22],36.0%
C[C@H]1COc2c(N3CCN(C)CC3)c(F)cc3c(=O)c(C(=O)O)cn1c23 [levofloxacin],log10 CFU/g reduction (positive control),"A. baumannii [3]; lung model, oral 200 mg/kg bid, A. baumannii ARC2058, 24 h",1.8 log10 CFU/g
same,change in log10 CFU (positive control),A. baumannii [11],−2.4 log10 CFU
